Read-outs that look alike come from different tables or passages of the source.
Assays:
MDA-MB-231 cells [1] = settings: 24 hours
MDA-MB-231 cells [2] = test: MTT proliferation assay; assay type: cell-based, human; settings: 48 hours; for effect on cell proliferation versus negative controls: 10 μM, hypoxic and normoxic conditions
Description: Cells were plated at 2×10^4 cells/ml in 24-well plates (Becton-Dickinson) and allowed to settle overnight. The cells were then treated for the required time of incubation (24 hours+), with medium changes every 24 hours. At the end of the treatment, the medium was removed, and this was followed by the colorimetric 3-[4,5-dimethylthiazol-2-yl]-2,5-diphenyltetrazolium bromide ([…]) assay (Grimes et al., 1995). Briefly, 0.1 ml MU (5 mg/ml made up in the growth medium) and 0.4 ml growth medium was added in each well and the plate was incubated for 3-4 hours at 37° C. The medium was then removed from the chambers and replaced with 0.5 ml dimethyl sulfoxide (DMSO) and 0.063 ml glycine buffer (0.1 M glycine and 0.1 M NaCl; pH 10.5). Absorbance at 570 nm was determined 15 minutes after the addition of the glycine buffer. Results were calculated as means of nine repeats of each of the treatment vs. control spectrophotometer readings from individual invasion wells.
Proliferation was indirectly measured using MTT (3-(4,5-dimethylthiazolyl-2)-2,5-diphenyltetrazolium). In principle, MTT is taken up and processed by metabolically active cells, which produce formazan as a by-product. Formazan is a purple dye which can be quantified on a spectrophotometer, providing a link between absorbance readings (570 nm) and cell number.
Cells were plated in 24-well plates at a density of 2×10^4 cells per well and pre-treated with 1 ml of the respective drug solutions (see FIG. 5.) for 48 hours in hypoxia and normoxia. 0.1 ml of MU (1 mg/ml) diluted in 0.4 ml of media was administered to each well, followed by 4 hours of incubation in dark, normoxic conditions (MU is light—sensitive). The solution was subsequently aspirated and 0.5 ml of 99.9% DMSO was added in combination with 75 μL glycine buffer. The dye was able to dissolve in DMSO during a 15 minute—incubation on a shaking platform at 150 cycles/minute. The absorbance was read using ELX800 Universal Microplate Reader (BioTek Instruments) with the background measuring 0.04. […]

MDA-MB-231 cells [3] = test: Matrigel invasion assay under hypoxia; assay type: cell-based, human
Description: This assay is an extension of the transverse migration assay described above. To “invade”, the cells need both (i) to move as in the transverse migration assay and (ii) secrete a proteolytic enzyme to digest their surroundings. The ability of cells to invade neighbouring tissues by enzyme secretion was therefore assessed by using a layer of Matrigel™ (BD Biosciences) spread across the porous membrane of a Transwell® insert.
50 μl Matrigel™ was seeded at a 1:7 dilution (10 mg/ml stock) onto the inserts and left overnight. Prior to seeding with the cells the Matrigel™ was rehydrated using medium with no additions. This medium was removed prior to seeding the cells.
Cells were plated in a 1-5% FBS chemotactic gradient overnight (12 hours).
Invaded cells were fixed for 15 minutes with ice-cold methanol. […] The inserts were swabbed again and then washed in water and allowed to dry. Cells were then counted using twelve separate fields of view per insert (×200 magnification). If the difference in the average number of cells invading the two control inserts was more than 40%, the experiment was rejected.
The matrigel solidified at 37° C. normoxia overnight and was hydrated at 37° C. normoxia for 3 hours using 0.5 ml FBS-free media. 300 μL of media containing 5% FBS was administered to the lower chamber and the same amount of media containing 1% FBS was added to the upper chamber (transwell filters). 2×10^4 cells were added to the 1% solution, allowing their invasion through the matrigel along the chemotactic gradient. Cells were left to settle and invade under hypoxic conditions overnight.

MDA-MB-231 cells [4] = test: Lateral motility (wound heal) assay; assay type: cell-based, human; settings: 10 μM, hypoxic conditions
Description: In order to determine lateral motility, a “wound-heal (“scratch”)” test was carried out, in which a scratch 504 of […] was made through the layer of cells, as shown in FIG. 5(b) which is a side sectional view of the cell culture dish. During the period of 24 hours following the formation of the scratch, the cells moved into the gap.
10^6 cells were plated in each 35×10 mm dish and kept in normoxic conditions to settle overnight. Each dish was marked by 15 parallel vertical lines and 3 non-overlapping horizontal lines. The media was refreshed and three wounds were made along the marked vertical lines using a 1 ml Gilson pipette tip. Floating cells were removed by 3 consecutive media washes and adherent cells were treated with 1 ml of the respective drug solution (10 μM Eleclazine/DMSO). The initial wound width (W0) was measured at 45 fixed points (where the vertical lines cross the wounds) using the graticule on a phase-contrast microscope (×10 magnification). Cells were then incubated in both normoxic and hypoxic conditions, with drug solutions being replaced every 24 hours. Wound width was measured every 12 hours and the motility of this breast cancer cell line was analysed using the “motility index” (MI=1-(Wt/W0)). A motility index of 1 accounts for complete wound closure, whereas MI=0 represents zero cell movement. […]

MDA-MB-231 cells [5] = assay type: cell-based, human; settings: 20 μM, 48 hours
Description: Cells were seeded at a density of 5×10^4 cells/ml in 35 mm Falcon tissue culture dishes. After treatment with a given drug, the medium was removed and replaced with 800 μl of growth medium and 200 μl 0.4% trypan blue (Sigma, Dorset, UK) and incubated for 10 minutes in the incubator. The trypan blue was removed and the cells were washed once with 3 ml growth medium. For each treatment, cells from 30 random fields of view were counted under 100× magnification. The number of dead cells, stained blue, was counted in each field of view. The data were expressed as percentages of living cells out of the total number of cells in given fields of view. The percentages were averaged and differences between control and treatment were compared from at least three independent experiments.
Cell viability and therefore drug toxicity was determined using the trypan blue assay. The procedure follows the principle that viable cells surrounded by an intact double membrane cannot absorb the trypan blue dye, whereas dead and fragmented cells can. […]
The solution was subsequently replaced with 0.2 ml of 0.4% trypan blue (Sigma-Aldrich) and 0.8 ml of media. […] Cell viability was determined by counting the proportion of viable and dead cells in 30 fields of view on each dish (Zeiss Axiovert 25 phase contrast microscope, ×40 magnification).

neonatal Nav1.5 = test: Immunocytochemistry of nNav1.5 protein expression in MDA-MB-231 cells; assay type: cell-based, human; settings: 10 μM, 24 hour treatment, normoxic and hypoxic conditions
Description: Cells were pre-treated with either 10 μM Eleclazine or DMSO in both normoxic and hypoxic conditions for 24 hours. The following day, round 13 mm coverslips were placed into 24-well plates and incubated with 0.5 ml poly-L-lysine for 20 minutes. The solution was aspirated and 2×10^4 pre-treated cells were added on top of each coverslip. The wells were filled up to 0.5 ml with the respective drug solutions and cells were left to settle onto the coverslips in normoxic and hypoxic conditions overnight.
Cells were washed with PBS and fixed by incubating coverslips with 0.5 ml 4% PFA (in PBS) for 15 minutes. Coverslips were then washed in PBS three times for 5 minutes. Half of the samples were permeabilised in 0.1% Saponin/PBS (4 minutes) followed by three 5 minute washes in PBS. Cells were blocked for 1 hour with 0.5 ml 5% BSA/PBS (pH 7.4). Coverslips were incubated with 70 μL NESOpAb (primary antibody specific for neonatal Nav1.5; 1:100 dilution) for 1 hour in a humidity chamber (room temperature). Three 5 minute PBS washes rinsed off residual NESOpAb and the secondary antibody (goat anti-rabbit IgG Alexa Fluor 568, 1:100 dilution) was administered for 1 hour in the dark. […]
Imaging was conducted on a Zeiss axiovert 200 inverted microscope. […] The corrected total cell fluorescence was quantified using ImageJ.

persistent current = target: T1, persistent current (Homo sapiens, UniProt Q14524); test: Patch-clamp (data not shown); assay type: cell-based; settings: 10 μM
T1 construct: transient and persistent sodium current, using the highly invasive human breast cancer cell line MDA-MB-231; endogenous in cells; host or cells: MDA-MB-231

Compound: OO [hydrogen peroxide]
- mean detachment negative pressure, change versus untreated cells (MDA-MB-231 cells [1]; 1 μM): approximately −9%
- mean detachment negative pressure, change versus untreated cells (MDA-MB-231 cells [1]; 10 μM): approximately −14%
- mean detachment negative pressure, change versus untreated cells (MDA-MB-231 cells [1]; 100 μM): approximately −20%

Compound: COc1ccccc1OCC(O)CN1CCN(CC(=O)Nc2c(C)cccc2C)CC1 (centres unmarked) [ranolazine, reference compound]
- effect on cell proliferation versus negative controls (MDA-MB-231 cells [2]): no significant effect
- effect on invasiveness (MDA-MB-231 cells [3]; 5 μM, hypoxia (1% O2), 24 h pre-incubation, invasion over 16 h): suppress invasiveness significantly

Compound: CC[N+](CC)(CC)CC [TEA]
- reduction of cell proliferation (MDA-MB-231 cells [2]; 2 mM, positive control): approximately 50%

Compound: NC1=N[C@H](O)[C@H]2[C@H]3O[C@]4(O)O[C@@H]([C@@H](O)[C@@]2(N1)[C@@H]4O)[C@]3(O)CO [TTX, tetrodotoxin, reference compound]
- effect on invasiveness (MDA-MB-231 cells [3]): decreases

Compound: O=C1c2cc(-c3ccc(OC(F)(F)F)cc3)ccc2OCCN1Cc1ncccn1 [eleclazine, 4-(pyrimidin-2-ylmethyl)-7-(4-(trifluoromethoxy)phenyl)-3,4-dihydrobenzo[f][1,4]oxazepin-5(2H)-one]
- reduction of lateral motility (MDA-MB-231 cells [4]; after 12 hours): 5%
- reduction of lateral motility (MDA-MB-231 cells [4]; after 48 hours): 30%
- average proportion of viable cells per field of view (MDA-MB-231 cells [5]): 99.96%
- nNav1.5 protein expression, corrected total cell fluorescence (CTCF) (neonatal Nav1.5): statistically significant reduction
- effect on cell proliferation versus negative controls (MDA-MB-231 cells [2]): no statistically significant difference
- effect on persistent current (persistent current): effectively blocked
- effect on invasiveness (MDA-MB-231 cells [3]; 0.5 μM, hypoxia (1% O2), 24 h pre-incubation, invasion over 16 h): does not affect invasiveness
- number of cells invading, median (interquartile range) (MDA-MB-231 cells [3]; 1 μM, hypoxia (1% O2), 24 h pre-incubation, invasion over 16 h, control 175.0 (113 & 255)): 131.5 (100 & 175)
- reduction of invasiveness (MDA-MB-231 cells [3]; 5 μM, hypoxia): approximately 50%
- effect on invasiveness (preliminary assays) (MDA-MB-231 cells [3]; 10 μM, hypoxic conditions): drastically reduced

From patent publication US12605390B2, “Treatment of cancer and inhibition of metastasis” (Celex Oncology Innovations Limited, priority 2017, dated 2026)
